≈ marks a conversion by molar mass, not a printed value.
How the values were obtained:
Experiment in all cases: ≥ marks a high value that may be exact or a test limit, other limits are often not marked, values filed in µg/mL are converted to µM
[1] = tested on: Bacillus subtilis IFO 3143
[2] = tested on: Bacillus subtilis KCTC 3068
[3] = tested on: Escherichia coli IFO 12734
[4] = tested on: Escherichia coli KCTC 1682
[5] = tested on: Pseudomonas aeruginosa IFO 12582
[6] = tested on: Pseudomonas aeruginosa KCTC 1637
[7] = tested on: Salmonella typhimurium KCTC 1926
[8] = tested on: Staphylococcus aureus IFO 12732
[9] = tested on: Staphylococcus aureus KCTC 1621
[10] = tested on: Staphylococcus epidermidis KCTC 1917
[11] = tested on: Aspergillus flavus KCTC 1375
[12] = tested on: Candida albicans ATCC 90028
[13] = tested on: Enterococcus faecium ATCC 19434
Enterococcus faecium = tested on: Enterococcus faecium
[14] = tested on: Escherichia coli O157:H7 ATCC 43895
Escherichia coli = tested on: Escherichia coli
[15] = tested on: Malassezia furfur KCTC 7744
[16] = tested on: Pseudomonas aeruginosa ATCC 27853
Pseudomonas aeruginosa = tested on: Pseudomonas aeruginosa
[17] = tested on: Staphylococcus aureus ATCC 25923
Staphylococcus aureus = tested on: Staphylococcus aureus
Escherichia coli BL21AI = tested on: Escherichia coli BL21AI
[18] = tested on: Escherichia coli DSM 10233
[19] = tested on: Klebsiella pneumoniae DSM 681
[20] = tested on: Micrococcus luteus ATCC 10240
[21] = tested on: Bacillus subtilis KCTC 1918
[22] = tested on: Candida albicans TIMM 1768
[23] = tested on: Proteus vulgaris KCTC 2433
[24] = tested on: Saccharomyces cerevisiae KCTC 7296
[25] = tested on: Trichosporon beigelii KCTC 7707
[26] = tested on: Acinetobacter baumannii NM109
[27] = tested on: Acinetobacter baumannii NM124
[28] = tested on: Acinetobacter baumannii NM35
[29] = tested on: Acinetobacter baumannii NM75
[30] = tested on: Acinetobacter baumannii NM8
[31] = tested on: Enterococcus faecalis ATCC 29212
[32] = tested on: Escherichia coli ATCC 25726
[33] = tested on: Klebsiella pneumoniae ATCC 700603
[34] = tested on: Staphylococcus aureus 127/08
[35] = tested on: Staphylococcus aureus 145/08
[36] = tested on: Staphylococcus aureus 274/08
[37] = tested on: Staphylococcus aureus S908
[38] = tested on: Staphylococcus aureus T4/6
[39] = tested on: Staphylococcus aureus V4180
[40] = tested on: Staphylococcus epidermidis RP62A/1
[41] = tested on: Staphylococcus epidermidis RP62A
[42] = tested on: Staphylococcus epidermidis T37/8
[43] = tested on: Staphylococcus epidermidis T6/19
[44] = tested on: Stenotrophomonas maltophilia B32/1
[45] = tested on: Stenotrophomonas maltophilia B32/4
[46] = tested on: Stenotrophomonas maltophilia B5/5
[47] = tested on: Stenotrophomonas maltophilia B6/2
[48] = tested on: Stenotrophomonas maltophilia U8908

## CC(C)C[C@H](NC(=O)[C@H](Cc1ccc(O)cc1)NC(=O)[C@H](Cc1cnc[nH]1)NC(=O)[C@@H](NC(=O)[C@H](CC(C)C)NC(=O)[C@H](C)NC(=O)[C@H](C)NC(=O)[C@H](CCCCN)NC(=O)[C@H](C)NC(=O)[C@@H](NC(=O)[C@H](Cc1cnc[nH]1)NC(=O)[C@H](CCCCN)NC(=O)[C@H](C)NC(=O)[C@@H](NC(=O)[C@H](Cc1cnc[nH]1)NC(=O)[C@H](C)NC(=O)[C@H](C)NC(=O)[C@H](CCCCN)NC(=O)[C@H](CCCCN)NC(=O)[C@H](Cc1ccccc1)NC(=O)[C@H](Cc1ccccc1)NC(=O)[C@H](CO)NC(=O)CNC(=O)[C@H](Cc1c[nH]c2ccccc12)NC(=O)CN)C(C)C)C(C)C)[C@@H](C)O)C(=O)O [GWGSFFKKAAHVAKHVAKAALTHYL]
[1]
  MIC: 0.365 µM (≈ 1 µg/mL)
[2]
  MIC: 4 µM (≈ 11 µg/mL)
[3]
  MIC: 0.73 µM (≈ 2 µg/mL)
[4]
  MIC: 1 µM (≈ 2.74 µg/mL)
[5]
  MIC: 1.46 µM (≈ 4 µg/mL)
[6]
  MIC: 1 µM (≈ 2.74 µg/mL)
[7]
  MIC: 1 µM (≈ 2.74 µg/mL)
[8]
  MIC: 1.46 µM (≈ 4 µg/mL)
[9]
  MIC: 0.5 µM (≈ 1.37 µg/mL)
[10]
  MIC: 0.5 µM (≈ 1.37 µg/mL)

## CC(C)C[C@H](NC(=O)[C@H](Cc1ccc(O)cc1)NC(=O)[C@H](Cc1cnc[nH]1)NC(=O)[C@@H](NC(=O)[C@H](CC(C)C)NC(=O)[C@H](C)NC(=O)[C@H](C)NC(=O)[C@H](CCCCN)NC(=O)CNC(=O)[C@@H](NC(=O)[C@H](Cc1cnc[nH]1)NC(=O)[C@H](CCCCN)NC(=O)CNC(=O)[C@@H](NC(=O)[C@H](Cc1cnc[nH]1)NC(=O)[C@H](C)NC(=O)[C@H](C)NC(=O)[C@H](CCCCN)NC(=O)[C@H](CCCCN)NC(=O)[C@H](Cc1ccccc1)NC(=O)[C@H](Cc1ccccc1)NC(=O)[C@@H](N)CO)C(C)C)C(C)C)[C@@H](C)O)C(N)=O [SFFKKAAHVGKHVGKAALTHYL]
[11]
  MIC: 20 µM (≈ 48.2 µg/mL)
[12]
  MIC: 14.1 µM (≈ 34.1 µg/mL)
[13]
  MIC: 20 µM (≈ 48.2 µg/mL)
Enterococcus faecium
  MIC: 28.3 µM (≈ 68.2 µg/mL)
[14]
  MIC: 20 µM (≈ 48.2 µg/mL)
Escherichia coli
  MIC: 28.3 µM (≈ 68.2 µg/mL)
[15]
  MIC: 20 µM (≈ 48.2 µg/mL)
[16]
  MIC: 14.1 µM (≈ 34.1 µg/mL)
Pseudomonas aeruginosa
  MIC: 28.3 µM (≈ 68.2 µg/mL)
[17]
  MIC: 20 µM (≈ 48.2 µg/mL)
Staphylococcus aureus
  MIC: 14.1 µM (≈ 34.1 µg/mL)

## CC[C@H](C)[C@H](NC(=O)[C@@H]1CCCN1C(=O)[C@H](CCCN=C(N)N)NC(=O)[C@@H]1CCCN1C(=O)[C@H](Cc1cnc[nH]1)NC(=O)[C@H](CO)NC(=O)[C@@H](NC(=O)[C@@H]1CCCN1C(=O)[C@H](CCCN=C(N)N)NC(=O)[C@@H]1CCCN1C(=O)[C@@H](NC(=O)[C@H](Cc1ccc(O)cc1)NC(=O)[C@@H]1CCCN1C(=O)[C@H](CCCN=C(N)N)NC(=O)[C@@H]1CCCN1C(=O)[C@H](CCCCN)NC(=O)CN)[C@@H](C)O)[C@@H](C)O)C(=O)N[C@@H](CCCN=C(N)N)C(=O)N[C@H](C(=O)O)C(C)C [GKPRPYTPRPTSHPRPIRV]
Escherichia coli BL21AI
  MIC: 3.62 µM (≈ 8 µg/mL)
[18]
  MIC: 0.904 µM (≈ 2 µg/mL)
[19]
  MIC: 3.62 µM (≈ 8 µg/mL)
[20]
  MIC: 0.904 µM (≈ 2 µg/mL)

## CC[C@H](C)[C@H](NC(=O)CNC(=O)[C@H](CC(C)C)NC(=O)[C@H](CCCN=C(N)N)NC(=O)[C@H](CCCCN)NC(=O)[C@H](Cc1ccccc1)NC(=O)[C@@H](NC(=O)[C@H](CCCCN)NC(=O)[C@H](CCCCN)NC(=O)[C@H](C)N)C(C)C)C(=O)NCC(=O)N[C@@H](C)C(=O)N[C@H](C(=O)N[C@@H](CC(C)C)C(=O)N[C@@H](CCCCN)C(=O)N[C@H](C(=O)N[C@@H](CC(C)C)C(=O)N[C@@H](CCCCN)C(=O)N[C@@H](CCCCN)C(=O)NCC(=O)O)C(C)C)C(C)C [AKKVFKRLGIGAVLKVLKKG]
[21]
  MIC: 0.78 µM (≈ 1.68 µg/mL)
[22]
  MIC: 6.25 µM (≈ 13.5 µg/mL)
[23]
  MIC: 0.39 µM (≈ 0.84 µg/mL)
[24]
  MIC: 6.25 µM (≈ 13.5 µg/mL)
[7]
  MIC: 0.19 µM (≈ 0.409 µg/mL)
[9]
  MIC: 1.56 µM (≈ 3.36 µg/mL)
[25]
  MIC: 4.42 µM (≈ 9.52 µg/mL)

## CC[C@H](C)[C@H](NC(=O)[C@H](C)NC(=O)[C@H](CCCCN)NC(=O)CNC(=O)[C@@H](NC(=O)[C@H](Cc1cnc[nH]1)NC(=O)CNC(=O)[C@H](CC(C)C)NC(=O)[C@H](CC(C)C)NC(=O)[C@@H](NC(=O)CNC(=O)[C@@H](NC(=O)[C@H](CC(C)C)NC(=O)CN)C(C)C)[C@@H](C)O)[C@@H](C)CC)C(=O)N[C@@H](CC(C)C)C(=O)NCC(=O)O [GLVGTLLGHIGKAILG]
[26]
  MIC: ≥ 250 µM
[27]
  MIC: ≥ 250 µM
[28]
  MIC: ≥ 250 µM
[29]
  MIC: ≥ 250 µM
[30]
  MIC: ≥ 250 µM
[12]
  MIC: ≥ 250 µM
[31]
  MIC: 250 µM (≈ 380 µg/mL)
[32]
  MIC: ≥ 250 µM
[33]
  MIC: > 250 µM
[16]
  MIC: > 250 µM
[34]
  MIC: ≥ 125 µM
[35]
  MIC: ≥ 250 µM
[36]
  MIC: ≥ 250 µM
[17]
  MIC: 125 µM (≈ 190 µg/mL)
[37]
  MIC: ≥ 125 µM
[38]
  MIC: ≥ 250 µM
[39]
  MIC: ≥ 250 µM
[40]
  MIC: ≥ 125 µM
[41]
  MIC: ≥ 125 µM
[42]
  MIC: ≥ 250 µM
[43]
  MIC: ≥ 125 µM
[44]
  MIC: ≥ 250 µM
[45]
  MIC: ≥ 250 µM
[46]
  MIC: ≥ 250 µM
[47]
  MIC: ≥ 250 µM
[48]
  MIC: ≥ 250 µM

Reference: DBAASP
